The source of these data is paper PMC4076079, “Selective inhibitors of a PAF biosynthetic enzyme lysophosphatidylcholine acyltransferase 2” (Journal of Lipid Research, 2014).

The assay concerns the target T1, hLPCAT2 (Homo sapiens, UniProt Q7L5N7).
T1 construct: expressed in transfected cells; host or cells: CHO-S-PAFR cells (microsomal fraction), with or without mcPAF stimulation
T1 sequence (Q7L5N7 1-544): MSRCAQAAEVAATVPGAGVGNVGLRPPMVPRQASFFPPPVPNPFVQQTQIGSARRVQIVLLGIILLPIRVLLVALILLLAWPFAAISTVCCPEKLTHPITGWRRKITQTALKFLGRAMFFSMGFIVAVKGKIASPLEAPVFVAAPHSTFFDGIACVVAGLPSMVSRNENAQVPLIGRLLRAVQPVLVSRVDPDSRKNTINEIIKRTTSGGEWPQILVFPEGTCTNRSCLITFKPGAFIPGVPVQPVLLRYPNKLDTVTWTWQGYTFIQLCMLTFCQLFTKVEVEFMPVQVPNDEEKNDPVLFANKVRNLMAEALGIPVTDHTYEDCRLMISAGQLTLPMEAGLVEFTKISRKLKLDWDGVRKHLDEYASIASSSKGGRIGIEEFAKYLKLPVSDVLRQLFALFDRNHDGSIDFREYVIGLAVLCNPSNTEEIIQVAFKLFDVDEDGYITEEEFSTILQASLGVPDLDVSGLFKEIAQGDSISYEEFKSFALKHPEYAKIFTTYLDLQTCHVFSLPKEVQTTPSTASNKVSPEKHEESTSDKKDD
The assay is described as follows: kinetic analysis of lyso-PAFAT activity. In kind it is biochemical. Conditions: lyso-PAFAT activity of hLPCAT2, competitive with acetyl-CoA; Dixon plot, Prism; mcPAF-stimulated microsomes; read-out: Inhibition constant (apparent Ki value). Here is the method:
Microsomal protein fractions (0.5 μg) supplemented with the indicated compound concentrations were added to the reaction mixture containing 100 mM Tris-HCl (pH 7.4), 1 μM CaCl2, 0.015% Tween-20, and two substrates. For acetyltransferase activity, the substrates were 1 mM acetyl-CoA and 5 μM d4-lyso-PAF; for the acyltransferase activity of LPCAT1 or LPCAT2, the substrates were, respectively, palmitoyl-CoA and d31-16:0 LPC or arachidonoyl-CoA and d4-lyso-PAF (all 5 μM). Each lysophospholipid contained fatty acid at the sn-1 position. After incubation at 37°C for 5 min, the reactions were stopped by adding 300 μl methanol containing 17:0 LPC or 14:0/14:0 PC as an internal standard. Deuterium-labeled products were analyzed by LC-MS/MS (Waters, Milford, MA and Thermo Scientific, Waltham, MA).
To investigate the mechanism by which TSI-01 inhibited lyso-PAFAT activity of hLPCAT2, kinetic analysis was performed. CHO-S-PAFR cells overexpressing hLPCAT2 were stimulated with or without mcPAF for 30 s and analyzed for lyso-PAFAT activity in the microsomal fraction. […] Inhibition constant (apparent Ki value) of TSI-01 was also calculated as 30–40 nM using Prism software (Fig. 6D).
Fig. 6. Effects of TSI-01 on kinetics of LPCAT2 enzymatic activity. […]

With `CC(C)OC(=O)c1ccc(N2C(=O)C(Cl)=C(Cl)C2=O)cc1` [TSI-01, propan-2-yl 4-(3,4-dichloro-2,5-dioxopyrrol-1-yl)benzoate], the Ki was 30 to 40 nM.
